The results in this text go back to article PMC4501319, “Discovery of Selective Small-Molecule Activators of a Bacterial Glycoside Hydrolase” (Angewandte Chemie (International Ed. in English), 2014).

Values joined by “and” are separate entries in the source; they are usually repeats but may differ in a detail not shown here. Equal entries are not always repeated.

Series [1] concerns the target T1, BtGH84 (Bacteroides thetaiotaomicron, UniProt Q89ZI2).
T1 construct: made in house
Kind of series: 4MU-GlcNAc cleavage assay (fluorescent kinetic enzyme activity assay). It counts as biochemical. The note with it: for Vmax(app): Michaelis–Menten fit, 1 % DMSO, substrate 50 μM to 2 mM, activator concentration 2 mM; for Kd: affinity of activator to the substrate-bound enzyme, read-out: αKA; for Vmax / α / β: non-essential activator equation fit to covariation experiments; for Vmax: activator 50 µM to 2 mM; for α: modifies KM; for β: modifies Vmax/kcat; for Emax: read-out: Maximum activation. As to the method:
AC50 measurements of fragment activators were performed using a fluorescent kinetic assay. Assays were carried out in a 96 well plate (Black Nunc F96 MicroWell Plates) at 25°C in a total volume of 100 μl per well, buffer (50 mM MES pH 6.5, 200 mM NaCl, 0.01% Tween-20, 1% DMSO) with 500 μM 4-methylumbelliferyl-β-D-GlcNAc (4MU-GlcNAc), as substrate and 50 nM BtGH84. Reactions were initiated by addition of 10 μl of substrate, to a final concentration of 500 μM, followed by 5 s of shaking. Fluorescent 4-methylumbelliferyl release was recorded continuously at 355 nm excitation and 460 nm emission for 20 s using a BMG PolarStar Optima plate reader. Rates were calculated using Sigmaplot as the slope of the curve of the collected data. Corrections were made to the detected gradients to adjust for the inner filter effect of 4MU-GlcNAc and convert the gradients into units of μmol min-1 according to a standard curve of 4MU. […]
Kinetic experiments using 4MU-GlcNAc were carried out in an analogous manner except that reactions were initiated by a 10 μl injection of BtGH84, to a final concentration of 50 nM, in a well containing the substrate at the desired concentration. Values quoted throughout are mean and standard deviation of three independent […]
Apparent KM and Vmax values were calculated from a Michalis-Menten curve fit to 8-10 point substrate titrations at a constant concentration of the activator. The covariation experiments used the same range of substrate concentrations across an activator concentration range of 50 µM to 2 mM. The data obtained from these experiments was fit to the nonessential activator equation: […]
Here, [S] is the concentration of the […], [A] the concentration of the activator, α modifies KM, β modifies Vmax and KA is the half-max concentration of the activator. […]

Series [2] has as its target T1, BtGH84. Kind of series: Affinity by NMR spectroscopy using proton relaxation rates R2. Type of series: binding. As for the experimental part: (§1) Compounds in the fragment library were purchased from Specs, additional structural neighbours were purchased from Specs and Enamine. O-(2-Acetamido-2-deoxy-D-glucopyranosylidene) amino-Z-N-phenylcarbamate (PUGNAc) was purchased from Tocris Bioscience.
(§2) The fragment library was assembled as described by Schulz et al.[1] and dissolved in DMSO-d6 to a concentration of 200 mM and quality controlled using 1H NMR spectroscopy. Instant JChem 5.3.8, 2010, ChemAxon (http://www.chemaxon.com), was used for structure database management.
(§3) NMR spectroscopy and fragment screening
(§4) NMR experiments were carried out on a Bruker Avance II 700 MHz NMR spectrometer equipped with a triple resonance probe and z axis gradients. Data were processed using Topspin 3.2 software. Three NMR experiments were used for the screening, STD NMR,[2] PO-WaterLOGSY,[3] and T1ρ-filtered[4] 1H NMR experiments. […] The experiments were recorded using the standard STD NMR pulse sequence with a 15 ms 6 kHz spin-lock pulse to reduce the background protein resonances and excitation sculpting to suppress the water resonance. […]
Figure S3. Dissociation constant of 2 for BtGH84 determined in the presence of PUGNAc with 1H R2 relaxation rates. […]

Series [3] concerns β-N-Acetylglucosaminidase from Canavalia ensiformis (Jack bean). Kind of series: 4MU-GlcNAc substrate titration with commercially available β-N-acetylglucosaminidase. Type of series: biochemical. As to conditions: 4MU-GlcNAc substrate titration at pH 4.9 and pH 6.5. From the text: Figure S8: Effect of activators 2 and 4 on a β-N-Acetylglucosaminidase from Canavalia ensiformis (Jack
(B) titration at the same pH as used for the BtGH84 studies (pH 6.5).
Enzyme supplied by Sigma (purified from native source).
(1 picture or pasted object on this page, not shown here)

Series [4] can be described thus: Aqueous solubility. Type of series: physicochemical.
Series [5] has as its target T1, BtGH84. Kind of series: STD NMR competition between activators. It counts as binding. The note with it: in the presence of 2 (25 mM) as competitor. As for the experimental part:
as §1, §2, §3
as §4, with “experiments. All NMR screening data were collected at 288K and the samples contained 20 μM BtGH84, fragments at a concentration of approximately 200 μM per compound and 20 μM of TSP in 25 mM phosphate buffer containing 150 mM NaCl and 10% D2O at pH 7.4.” for “experiments.”

Where [6] appears, read: titration of activator from 50 μM to 2 mM, substrate concentration 500 μM.

T1 sequence (Q89ZI2 22-737, change not shown): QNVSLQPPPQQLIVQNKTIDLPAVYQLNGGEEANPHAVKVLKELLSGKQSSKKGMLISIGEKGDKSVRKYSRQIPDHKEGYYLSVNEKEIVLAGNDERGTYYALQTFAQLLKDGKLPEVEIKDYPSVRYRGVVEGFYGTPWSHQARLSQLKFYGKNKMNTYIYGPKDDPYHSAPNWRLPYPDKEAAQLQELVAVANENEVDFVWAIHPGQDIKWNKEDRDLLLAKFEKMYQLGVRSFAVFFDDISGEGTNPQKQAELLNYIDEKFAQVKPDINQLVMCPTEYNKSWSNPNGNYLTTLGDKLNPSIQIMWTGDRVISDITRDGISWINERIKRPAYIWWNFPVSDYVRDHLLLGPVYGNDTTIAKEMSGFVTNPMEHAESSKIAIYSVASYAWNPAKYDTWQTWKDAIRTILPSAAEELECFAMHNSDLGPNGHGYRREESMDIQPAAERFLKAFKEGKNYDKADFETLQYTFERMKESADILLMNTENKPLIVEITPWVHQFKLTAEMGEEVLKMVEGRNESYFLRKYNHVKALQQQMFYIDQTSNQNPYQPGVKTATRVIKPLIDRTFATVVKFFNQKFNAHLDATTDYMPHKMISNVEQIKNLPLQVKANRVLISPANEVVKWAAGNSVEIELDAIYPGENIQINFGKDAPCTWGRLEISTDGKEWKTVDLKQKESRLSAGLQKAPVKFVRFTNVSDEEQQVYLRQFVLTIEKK

As a reminder, the AC50 is the midpoint of the concentration-response curve, whichever way the signal moves. Low values mean activity at low concentration, high ones activity only at high concentration. Regarding `CCOc1ncnc2ccccc12` [Compound 2, 4-ethoxyquinazoline], in series [1] (activation, 4MU-GlcNAc substrate concentration 500 μM), the AC50 is 3500 µM and ~3500 µM. The “affinity for BtGH84” value in series [2] (in the absence of PUGNAc, compared with presence of PUGNAc) is recorded as “weaker”. Besides, the Kd in series [2] (in the presence of PUGNAc (200 μM), 8 μM BtGH84, 298 K) is 3100 ± 700 µM. Besides, the “activation of β-N-acetylglucosaminidase” value in series [3] is listed as “do not increase the activity”.

For orientation: Vmax means the top rate of the reaction or transport when substrate is in excess. As for `CCOc1ncnc2sc(C)c(C)c12` [Compound 3], in series [1], the “Vmax(app)” value was determined as 0.022 ± 0.001 µmol/min, the Vmax is 0.019 ± 0.0007 µmol/min, the α is reported as 0.061 ± 0.04 and the β is reported as 1.4 ± 0.1. For the same compound, in series [1] (covariation experiments), the Kd was 1090 µM and the βkcat was found to be 88.7 s⁻¹. Also, in series [1] (setting [6]), the AC50 was 575 ± 78 µM and the Emax stood at 284%. In series [4] (compared to the original activator 2), the aqueous solubility entry is recorded as “poor”. Moreover, the “highest concentration attainable at 1% DMSO” value in series [4] (enzyme assay buffer, 1% DMSO) came out at 2 mM.

`Cc1sc2ncnc(N3CCOCC3)c2c1C` [Compound 4]: in series [1], the “Vmax(app)” value worked out at 0.026 ± 0.002 µmol/min; the maximal velocity (Vmax) turned out to be 0.018 ± 0.002 µmol/min; the α was 0.14 and 0.14 ± 0.02; the β is 1.7 and 1.7 ± 0.1. Besides, in series [1] (covariation experiments), the Kd is ~200 µM and 224 µM; the βkcat came out at 100 s⁻¹. Moreover, the “enhancement of substrate binding in the presence of the activator” value in series [1] (from α, covariation experiments) was ~7 fold. In addition, the “increase of kcat in the presence of the activator” value in series [1] (from β, covariation experiments) worked out at 1.7 fold. Further, in series [1] (setting [6]), the AC50 was determined as 259 ± 24 µM and the Emax stood at 371%. In series [5], the “saturation transfer (STD NMR signal) from BtGH84 to activator” value is given as “significantly diminished”. Further, the “activation of β-N-acetylglucosaminidase” value in series [3] is listed as “do not increase the activity”.

Consider `CCc1cc2c(N3CCOCC3)ncnc2s1` [Compound 5], for which, in series [1], the “Vmax(app)” value stood at 0.024 ± 0.001 µmol/min, the Vmax worked out at 0.018 ± 0.0008 µmol/min, the α came to 0.17 ± 0.02 and the β is given as 1.3 ± 0.07. Further, in series [1] (covariation experiments), the Kd is ~200 µM and 205 µM; the βkcat was determined as 75.8 s⁻¹. Moreover, in series [1] (setting [6]), half-maximal activity (AC50) was put at 274 ± 12 µM and the Emax was 329%. The “saturation transfer (STD NMR signal) from BtGH84 to activator” value in series [5] was “clear loss in signal intensity”.

With `c1nc(N2CCOCC2)c2ccsc2n1` [Compound 6], in series [1], the “Vmax(app)” value is 0.015 ± 0.002 µmol/min. For the same compound, in series [1] (setting [6]), half-maximal activity (AC50) was put at 702 ± 85 µM and the Emax worked out at 234%.
